Reference: patent publication US20100022562A1, “Use of Plant Growth Regulators to Reduce Abscisic Acid Related Plant Leaf Yellowing” (priority 2008, published 2010)

What was measured:
Pansy plants [1] = assay: Pansy shelf life under drought (daily wilting rating, sales index); assay type: in vivo
Protocol: All studies were conducted in the greenhouse at the research farm of Valent BioSciences Corporation (Long Grove, Ill.). Pansy plants were obtained either from local retailers as mature plants, or plugs from wholesale nurseries. Plugs of Pansy plants were transplanted into an 18-cell flat filled with Promix BX (available from Premier Horticulture Inc. Quakertown, Pa.) and grown for about 30 days prior to treatment. During growing periods, plants received daily irrigation and weekly fertilizer (1 g/L all purpose fertilizer 20-20-20, The Scotts Company, Marysville, Ohio).
(§1) Uniform plants were selected for the study. Prior to chemical treatment, plants were saturated with water and then drained for about two hours. A total of 20 mL chemical solution, which is equivalent to about 10% of the cell volume, was applied to each plant with 3 mL solution foliar applied to canopy and 17 mL solution drench applied to root zone. Unless specified, watering of plants was stopped after chemical treatment.
(§2) After chemical treatment, plants were arranged in a randomized complete block experimental design. The plants were rated daily for the extent of wilting on a scale from 1 (no wilting) to 4 (complete wilting) to generated a sales index rating. A rating of 2.5 was the point at which a plant was determined to be unmarketable and the previous day was recorded as the shelf life of that plant in days. Yellow leaf number was counted at 3 days after chemical treatment. Leaf transpiration rate was measured after treatment using a LI-1600 Steady State Porometer (LI-Cor, Lincoln, Nebr.). The transpiration rate of each treatment was calculated as the percentage of that of control at each day to reduce day-to-day variation caused by changes of environmental condition such as light intensity, humidity, and temperature.

Pansy plants [2] = assay: Pansy leaf transpiration rate (LI-1600 Steady State Porometer); assay type: in vivo; conditions: for Transpiration rate (% of control): Matrix Premium Rose
Protocol: as §1, §2

(S)-5-(1-hydroxy-2,6,6,-trimethyl-4-oxo-2-cyclohexen-1-yl)-3-methyl-(2Z,4E)-pentadienoic acid [ABA]
Shelf life (Pansy plants [1]; 0.3 mg ABA, Matrix Yellow, Table 5): 4.8 days | Shelf life (Pansy plants [1]; 0.3 mg ABA, Matrix Yellow, Table 6): 4.8 days | Shelf life (Pansy plants [1]; 0.3 mg ABA, Matrix Yellow, Table 17): 3.2 days | Shelf life (Pansy plants [1]; 1 mg, Matrix Orange, drought, Table 1): 5.0 days | Shelf life (Pansy plants [1]; 3 mg ABA, Colossus Formula Mix, no water, Table 20): 5.2 days | Shelf life (Pansy plants [1]; 3 mg ABA, Delta Premium Pure White, Table 21): 8.3 days | Shelf life (Pansy plants [1]; 3 mg ABA, Delta Premium Pure White, Table 22): 5.7 days | Shelf life (Pansy plants [1]; 3 mg ABA, Delta Premium Pure White, Table 24): 5.2 days | Shelf life (Pansy plants [1]; 3 mg ABA, Matrix Yellow, Table 5): 5.7 days | Shelf life (Pansy plants [1]; 3 mg ABA, Matrix Yellow, Table 6): 6.0 days | Shelf life (Pansy plants [1]; 3 mg ABA, Matrix Yellow, Table 17): 4.3 days | Shelf life (Pansy plants [1]; 3 mg ABA, no water, Matrix Premium Rose, Table 13): 4.8 days | Shelf life (Pansy plants [1]; 3 mg, Clear Sky Yellow, drought, Table 8): 6.5 days | Shelf life (Pansy plants [1]; 3 mg, Crown Azure Blue, drought, Table 9): 5.2 days | Shelf life (Pansy plants [1]; 3 mg, Delta Premium Pure Golden Yellow, advanced seedling stage (1 month old), drought, Table 4): 4.2 days | Shelf life (Pansy plants [1]; 3 mg, Delta Premium Pure Golden Yellow, drought, Table 3): 5.3 days | Shelf life (Pansy plants [1]; 3 mg, Matrix Orange, drought, Table 1): 5.8 days | Shelf life (Pansy plants [1]; 3 mg, Matrix Orange, drought, Table 2): 5.2 days | Shelf life (Pansy plants [1]; 3 mg, Matrix Yellow, drought, Table 7): 7.7 days | Shelf life (Pansy plants [1]; 3 mg, Matrix Yellow, drought, Table 10): 4.3 days | Shelf life (Pansy plants [1]; 10 mg, Delta Premium Pure Golden Yellow, advanced seedling stage (1 month old), drought, Table 4): 5.7 days | Shelf life (Pansy plants [1]; 10 mg, Delta Premium Pure Golden Yellow, drought, Table 3): 6.5 days | Shelf life (Pansy plants [1]; 10 mg, Matrix Orange, drought, Table 1): 7.0 days | Shelf life (Pansy plants [1]; 10 mg, Matrix Orange, drought, Table 2): 6.7 days | Shelf life (Pansy plants [1]; 30 mg ABA, Colossus Formula Mix, Table 18): 6.2 days | Shelf life (Pansy plants [1]; 30 mg ABA, Colossus Formula Mix, no water, Table 20): 6.5 days | Shelf life (Pansy plants [1]; 30 mg ABA, Delta Premium Pure White, Table 19): 8.7 days | Shelf life (Pansy plants [1]; 30 mg ABA, Delta Premium Pure White, Table 21): 10.2 days | Shelf life (Pansy plants [1]; 30 mg ABA, Delta Premium Pure White, Table 22): 9.2 days | Shelf life (Pansy plants [1]; 30 mg ABA, Delta Premium Pure White, Table 23): 8.2 days | Shelf life (Pansy plants [1]; 30 mg ABA, Delta Premium Pure White, Table 24): 7.2 days | Shelf life (Pansy plants [1]; 30 mg ABA, Matrix Premium Rose, no water from 1 day after ABA, Table 11): 7.2 days | Shelf life (Pansy plants [1]; 30 mg ABA, Matrix Yellow, Table 5): 10.2 days | Shelf life (Pansy plants [1]; 30 mg ABA, Matrix Yellow, Table 6): 10.8 days | Shelf life (Pansy plants [1]; 30 mg ABA, Matrix Yellow, Table 17): 8.3 days | Shelf life (Pansy plants [1]; 30 mg ABA, no water, Matrix Premium Rose, Table 13): 7.2 days | Shelf life (Pansy plants [1]; 30 mg, Clear Sky Yellow, drought, Table 8): 7.8 days | Shelf life (Pansy plants [1]; 30 mg, Crown Azure Blue, drought, Table 9): 6.7 days | Shelf life (Pansy plants [1]; 30 mg, Delta Premium Pure Golden Yellow, advanced seedling stage (1 month old), drought, Table 4): 7.7 days | Shelf life (Pansy plants [1]; 30 mg, Delta Premium Pure Golden Yellow, drought, Table 3): 8.0 days | Shelf life (Pansy plants [1]; 30 mg, Matrix Orange, drought, Table 1): 8.0 days | Shelf life (Pansy plants [1]; 30 mg, Matrix Orange, drought, Table 2): 9.2 days | Shelf life (Pansy plants [1]; 30 mg, Matrix Yellow, drought, Table 7): 9.3 days | Shelf life (Pansy plants [1]; 30 mg, Matrix Yellow, drought, Table 10): 8.0 days | Transpiration rate (% of control) (Pansy plants [2]; 3 mg ABA, no water, day 1 after treatment, Table 14): 22 % of control | Transpiration rate (% of control) (Pansy plants [2]; 3 mg ABA, no water, day 2 after treatment, Table 14): 15 % of control | Transpiration rate (% of control) (Pansy plants [2]; 3 mg ABA, no water, day 3 after treatment, Table 14): 34 % of control | Transpiration rate (% of control) (Pansy plants [2]; 3 mg ABA, no water, day 4 after treatment, Table 14): 35 % of control | Transpiration rate (% of control) (Pansy plants [2]; 3 mg ABA, no water, day 5 after treatment, Table 14): 27 % of control | Transpiration rate (% of control) (Pansy plants [2]; 3 mg ABA, watered, day 1 after treatment, Table 14): 23 % of control | Transpiration rate (% of control) (Pansy plants [2]; 3 mg ABA, watered, day 2 after treatment, Table 14): 18 % of control | Transpiration rate (% of control) (Pansy plants [2]; 3 mg ABA, watered, day 3 after treatment, Table 14): 36 % of control | Transpiration rate (% of control) (Pansy plants [2]; 3 mg ABA, watered, day 4 after treatment, Table 14): 43 % of control | Transpiration rate (% of control) (Pansy plants [2]; 3 mg ABA, watered, day 5 after treatment, Table 14): 59 % of control | Transpiration rate (% of control) (Pansy plants [2]; 3 mg ABA, watered, day 7 after treatment, Table 14): 76 % of control | Transpiration rate (% of control) (Pansy plants [2]; 3 mg ABA, watered, day 10 after treatment, Table 14): 97 % of control | Transpiration rate (% of control) (Pansy plants [2]; 3 mg ABA, watered, day 15 after treatment, Table 14): 97 % of control | Transpiration inhibition (Pansy plants [2]; 3 mg ABA, watered, within 5 days after treatment): more than 50% | Transpiration rate (% of control) (Pansy plants [2]; 30 mg ABA, day 1 after ABA treatment, Table 12): 6 % of control | Transpiration rate (% of control) (Pansy plants [2]; 30 mg ABA, day 2 after ABA treatment, Table 12): 8 % of control | Transpiration rate (% of control) (Pansy plants [2]; 30 mg ABA, day 3 after ABA treatment, Table 12): 11 % of control | Transpiration rate (% of control) (Pansy plants [2]; 30 mg ABA, no water, day 1 after treatment, Table 14): 7 % of control | Transpiration rate (% of control) (Pansy plants [2]; 30 mg ABA, no water, day 2 after treatment, Table 14): 8 % of control | Transpiration rate (% of control) (Pansy plants [2]; 30 mg ABA, no water, day 3 after treatment, Table 14): 8 % of control | Transpiration rate (% of control) (Pansy plants [2]; 30 mg ABA, no water, day 4 after treatment, Table 14): 15 % of control | Transpiration rate (% of control) (Pansy plants [2]; 30 mg ABA, no water, day 5 after treatment, Table 14): 21 % of control | Transpiration rate (% of control) (Pansy plants [2]; 30 mg ABA, no water, day 7 after treatment, Table 14): 27 % of control | Transpiration rate (% of control) (Pansy plants [2]; 30 mg ABA, watered, day 1 after treatment, Table 14): 7 % of control | Transpiration rate (% of control) (Pansy plants [2]; 30 mg ABA, watered, day 2 after treatment, Table 14): 7 % of control | Transpiration rate (% of control) (Pansy plants [2]; 30 mg ABA, watered, day 3 after treatment, Table 14): 9 % of control | Transpiration rate (% of control) (Pansy plants [2]; 30 mg ABA, watered, day 4 after treatment, Table 14): 15 % of control | Transpiration rate (% of control) (Pansy plants [2]; 30 mg ABA, watered, day 5 after treatment, Table 14): 21 % of control | Transpiration rate (% of control) (Pansy plants [2]; 30 mg ABA, watered, day 7 after treatment, Table 14): 28 % of control | Transpiration rate (% of control) (Pansy plants [2]; 30 mg ABA, watered, day 10 after treatment, Table 14): 56 % of control | Transpiration rate (% of control) (Pansy plants [2]; 30 mg ABA, watered, day 15 after treatment, Table 14): 99 % of control | Transpiration inhibition (Pansy plants [2]; 30 mg ABA, watered, through 10 days after treatment): more than 50%
